According to patent US20220119354A1, “DIAMINO-SUBSTITUTED PYRIDINES AND PYRIMIDINES AS HERBICIDES” (FMC Corporation, priority 2019, published 2022):

Legend:
Assay type in all cases: in vivo
[1] = tested on: barnyardgrass (Echinochloa crus-galli); assay: Test A preemergence, barnyardgrass; details: 0 to 100 scale, 0 is no effect, 100 is complete control
In short: (§1)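 Using a solvent/surfactant formulation, test chemicals were sprayed onto freshly seeded soil or onto 2–10 cm seedlings at the one- to two-leaf stage. Visual injury ratings on a 0–100 scale were made about 10 d later in the greenhouse.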

kochia (Kochia scoparia) [2] = assay: Test A preemergence, kochia; details: 0 to 100 scale, 0 is no effect, 100 is complete control
In short: as §1

[3] = tested on: ragweed (common ragweed, Ambrosia elatior); assay: Test A preemergence, ragweed; details: 0 to 100 scale, 0 is no effect, 100 is complete control
In short: as §1

[4] = tested on: ryegrass, Italian (Lolium multiflorum); assay: Test A preemergence, Italian ryegrass; details: 0 to 100 scale, 0 is no effect, 100 is complete control
In short: as §1

[5] = tested on: foxtail, giant (Setaria faberii); assay: Test A preemergence, giant foxtail; details: 0 to 100 scale, 0 is no effect, 100 is complete control
In short: as §1

[6] = tested on: pigweed (Amaranthus retroflexus); assay: Test A preemergence, pigweed; details: 0 to 100 scale, 0 is no effect, 100 is complete control
In short: as §1

[7] = tested on: barnyardgrass (Echinochloa crus-galli); assay: Test A postemergence, barnyardgrass; details: 0 to 100 scale, 0 no effect, 100 complete control
In short: as §1

kochia (Kochia scoparia) [8] = assay: Test A postemergence, kochia; details: 0 to 100 scale, 0 no effect, 100 complete control
In short: as §1

[9] = tested on: ragweed (common ragweed, Ambrosia elatior); assay: Test A postemergence, ragweed; details: 0 to 100 scale, 0 no effect, 100 complete control
In short: as §1

[10] = tested on: ryegrass, Italian (Lolium multiflorum); assay: Test A postemergence, Italian ryegrass; details: 0 to 100 scale, 0 no effect, 100 complete control
In short: as §1

[11] = tested on: foxtail, giant (Setaria faberii); assay: Test A postemergence, giant foxtail; details: 0 to 100 scale, 0 no effect, 100 complete control
In short: as §1

[12] = tested on: pigweed (Amaranthus retroflexus); assay: Test A postemergence, pigweed; details: 0 to 100 scale, 0 no effect, 100 complete control
In short: as §1

[13] = tested on: wheat (Triticum aestivum); assay: Test A postemergence, wheat; details: 0 to 100 scale, 0 no effect, 100 complete control
In short: as §1

corn (Zea mays) = assay: Test A postemergence, corn; details: 0 to 100 scale, 0 no effect, 100 complete control
In short: as §1

[14] = tested on: blackgrass (Alopecurus myosuroides); assay: Test A postemergence, blackgrass; details: 0 to 100 scale, 0 no effect, 100 complete control
In short: as §1

[15] = tested on: galium (catchweed bedstraw, Galium aparine); assay: Test A postemergence, galium; details: 0 to 100 scale, 0 no effect, 100 complete control
In short: as §1

rice (Oryza sativa) = assay: Test B flooded paddy test, rice; details: Flood, 250 g ai/ha, applied to paddy water, 2-leaf stage, visual evaluation after 13 to 15 d
In short: (§2)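 Rating: 0 = no effect, 100 = complete control, visual, relative to untreated plants. Conditions: 2-leaf stage, 3 cm flood kept constant, compound put directly into water, 13–15 d greenhouse.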

[16] = tested on: sedge, umbrella (small-flower umbrella sedge, Cyperus difformis); assay: Test B flooded paddy test, umbrella sedge; details: Flood, 250 g ai/ha, applied to paddy water, 2-leaf stage, visual evaluation after 13 to 15 d
In short: as §2

[17] = tested on: ducksalad (Heteranthera limosa); assay: Test B flooded paddy test, ducksalad; details: Flood, 250 g ai/ha, applied to paddy water, 2-leaf stage, visual evaluation after 13 to 15 d
In short: as §2

[18] = tested on: barnyardgrass (Echinochloa crus-galli); assay: Test B flooded paddy test, barnyardgrass; details: Flood, 250 g ai/ha, applied to paddy water, 2-leaf stage, visual evaluation after 13 to 15 d
In short: as §2

Row | Compound | Barnyardgrass plant response rating ([1]; 31 g ai/ha) | Barnyardgrass plant response rating ([1]; 125 g ai/ha) | Kochia plant response rating (kochia (Kochia scoparia) [2]; 31 g ai/ha) | Kochia plant response rating (kochia (Kochia scoparia) [2]; 125 g ai/ha) | Ragweed plant response rating ([3]; 31 g ai/ha) | Ragweed plant response rating ([3]; 125 g ai/ha) | Ryegrass, Italian plant response rating ([4]; 31 g ai/ha) | Ryegrass, Italian plant response rating ([4]; 125 g ai/ha) | Foxtail, Giant plant response rating ([5]; 31 g ai/ha) | Foxtail, Giant plant response rating ([5]; 125 g ai/ha) | Pigweed plant response rating ([6]; 31 g ai/ha) | Pigweed plant response rating ([6]; 125 g ai/ha) | Plant response rating, Barnyardgrass ([7]; 31 g ai/ha) | Plant response rating, Barnyardgrass ([7]; 125 g ai/ha) | Plant response rating, Kochia (kochia (Kochia scoparia) [8]; 31 g ai/ha) | Plant response rating, Kochia (kochia (Kochia scoparia) [8]; 125 g ai/ha) | Plant response rating, Ragweed ([9]; 31 g ai/ha) | Plant response rating, Ragweed ([9]; 125 g ai/ha) | Plant response rating, Ryegrass, Italian ([10]; 31 g ai/ha) | Plant response rating, Ryegrass, Italian ([10]; 125 g ai/ha) | other results
1 | Cc1cccc2sc([C@@H](C)Nc3ncc(C(F)(F)F)c(N)n3)cc12 [Compound 115] | 20 | 60 | 40 | 80 | 60 | 80 | 20 | 40 | 30 | 90 | 90 | 100 | 10 | 100 | 70 | 90 | 30 | 80 | 30 | 50 | Plant response rating, Foxtail, Giant ([11]; 31 g ai/ha): 60; Plant response rating, Foxtail, Giant ([11]; 125 g ai/ha): 100; Plant response rating, Pigweed ([12]; 31 g ai/ha): 100; Plant response rating, Pigweed ([12]; 125 g ai/ha): 100; Plant response rating, Wheat ([13]; 31 g ai/ha): 0; Plant response rating, Wheat ([13]; 125 g ai/ha): 20; Plant response rating, Corn (corn (Zea mays); 31 g ai/ha): 10; Plant response rating, Corn (corn (Zea mays); 125 g ai/ha): 100; Plant response rating, Blackgrass ([14]; 31 g ai/ha): 0; Plant response rating, Blackgrass ([14]; 125 g ai/ha): 30; Plant response rating, Galium ([15]; 31 g ai/ha): 50; Plant response rating, Galium ([15]; 125 g ai/ha): 90; Plant response rating, Rice (0 to 100 scale, 0 is no effect, 100 is complete control) (rice (Oryza sativa)): 0; Plant response rating, Sedge, Umbrella (0 to 100 scale, 0 is no effect, 100 is complete control) [16]: 95; Plant response rating, Ducksalad (0 to 100 scale, 0 is no effect, 100 is complete control) [17]: 65; Plant response rating, Barnyardgrass (0 to 100 scale, 0 is no effect, 100 is complete control) [18]: 90
2 | C[C@@H](Nc1ncc(C(F)(F)F)c(N)n1)c1cc2c(Cl)cccc2s1 [Compound 116] | 0 | 30 | 30 | 40 | 60 | 70 | 20 | 40 | 20 | 60 | 40 | 80 | 10 | 50 | 30 | 80 | 40 | 60 | 30 | 30 | Plant response rating, Foxtail, Giant ([11]; 31 g ai/ha): 10; Plant response rating, Foxtail, Giant ([11]; 125 g ai/ha): 90; Plant response rating, Pigweed ([12]; 31 g ai/ha): 90; Plant response rating, Pigweed ([12]; 125 g ai/ha): 100; Plant response rating, Wheat ([13]; 31 g ai/ha): 0; Plant response rating, Wheat ([13]; 125 g ai/ha): 0; Plant response rating, Corn (corn (Zea mays); 31 g ai/ha): 20; Plant response rating, Corn (corn (Zea mays); 125 g ai/ha): 30; Plant response rating, Blackgrass ([14]; 31 g ai/ha): 0; Plant response rating, Blackgrass ([14]; 125 g ai/ha): 0; Plant response rating, Galium ([15]; 31 g ai/ha): 60; Plant response rating, Galium ([15]; 125 g ai/ha): 80; Plant response rating, Rice (0 to 100 scale, 0 is no effect, 100 is complete control) (rice (Oryza sativa)): 0; Plant response rating, Sedge, Umbrella (0 to 100 scale, 0 is no effect, 100 is complete control) [16]: 65; Plant response rating, Ducksalad (0 to 100 scale, 0 is no effect, 100 is complete control) [17]: 60; Plant response rating, Barnyardgrass (0 to 100 scale, 0 is no effect, 100 is complete control) [18]: 35
